Patent US7425557B2, “Inhibitors of glycogen synthase kinase 3” (Novartis Vaccines and Diagnostics, Inc., priority 1998, dated 2008)

Target: human GSK3β (Homo sapiens, UniProt P49841)
Experiment: Screening for GSK3 inhibitory activity using a cell-free assay
Type: biochemical
Conditions: read-out: IC50 with respect to GSK3
Procedure: This amount represents the amount of radiolabeled phosphate incorporated into the peptide substrate.
The captured radiolabeled peptide substrate can be quantitated in a scintillation counter using known methods. […] If an inhibitor is present during the reaction, GSK3 activity will be reduced, and a smaller quantity of radiolabeled phosphate will thus be incorporated into the peptide substrate.
Pyrimidine and pyridine compounds of the present invention were dissolved in DMSO, then tested for inhibition of human GSK3β (the nucleotide sequence for human GSK3β appears in GenBank under Accession No. L33801).
While the reaction was proceeding, streptavidin-coated Labsystems “Combiplate 8” capture plates (Labsystems, Helsinki, Finland) were blocked by incubating them with 300 μl/well of PBS containing 1% bovine serum albumin for at least one hour at room temperature. The blocking solution was then removed by aspiration, and the capture plates were filled with 100 ul/well of stopping reagent (50 μM ATP/20 mM EDTA).
When the three hour enzyme reaction was finished, triplicate 100 μl aliquots of each reaction mix were transferred to three wells containing stopping solution, one well on each of the three capture plates, and the well contents were mixed well. […] Finally, 200 μl of Microscint-20 scintillation fluid was added to each well of the plate. The plates were coated with plate sealers, then left on a shaker for 30 minutes. Each capture plate was counted in a Packard TopCount scintillation counter (Meridian, Conn.) and the results were plotted as a function of compound concentration.

human GSK3β, sequence (P49841 whole entry): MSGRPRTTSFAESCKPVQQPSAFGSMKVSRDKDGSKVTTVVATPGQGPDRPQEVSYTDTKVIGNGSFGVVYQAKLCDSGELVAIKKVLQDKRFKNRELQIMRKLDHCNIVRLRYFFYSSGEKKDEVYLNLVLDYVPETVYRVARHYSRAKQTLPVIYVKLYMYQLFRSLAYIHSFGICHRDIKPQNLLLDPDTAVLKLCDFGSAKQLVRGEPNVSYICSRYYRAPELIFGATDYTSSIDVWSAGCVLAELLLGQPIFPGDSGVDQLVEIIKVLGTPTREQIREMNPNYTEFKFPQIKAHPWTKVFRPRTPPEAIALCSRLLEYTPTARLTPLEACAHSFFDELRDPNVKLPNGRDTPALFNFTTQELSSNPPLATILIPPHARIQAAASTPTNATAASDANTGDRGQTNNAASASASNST

IC50	Structure (SMILES)
≤ 1000 nM	CN(C)C(=O)c1cnc(NCCNc2ccc([N+](=O)[O-])cn2)nc1-c1ccc(C#N)cc1 [[4-(4-cyanophenyl)-2-({2-[(5-nitro(2-pyridyl))amino]ethyl}-amino)pyrimidin-5-yl]-N,N-dimethylcarboxamide]
≤ 10000 nM	O=C(O)c1c(-c2ccncc2)nc(NCCNc2ccc([N+](=O)[O-])cn2)nc1-c1ccc([N+](=O)[O-])cc1 [2-({2-[(5-nitro(2-pyridyl))amino]ethyl}amino)-6-(4-nitrophenyl)-4-(4-pyridyl)pyrimidine-5-carboxylic acid]
≤ 10000 nM	COc1ccc(CNc2nccc(-c3ccc(C(N)=O)cc3)n2)cc1OC [4-(2-{[(3,4-dimethoxyphenyl)methyl]amino}-pyrimidin-4-yl)benzamide]
≤ 1000 nM	CCOC(=O)c1cnc(NCCNc2ccc([N+](=O)[O-])c(N)n2)nc1-c1ccc(-c2cnco2)cc1 [ethyl 2-({2-[(6-amino-5-nitro(2-pyridyl))amino]ethyl}amino)-4-(4-(1,3-oxazol-5-yl)phenyl)pyrimidine-5-carboxylate]
≤ 1000 nM	O=C(NCc1cccc(Br)c1)c1ccc(-c2ccnc(NCCNc3ncccn3)n2)cc1 [N-[(3-bromophenyl)methyl][4-(2-{[2-(pyrimidin-2-ylamino)ethyl]amino}pyrimidin-4-yl)phenyl]carboxamide]
≤ 1000 nM	FC(F)(F)c1ccc(NCCNc2ncc(-c3ncc[nH]3)c(-c3ccc(Cl)cc3Cl)n2)nc1 [[4-(2,4-dichlorophenyl)-5-imidazol-2-ylpyrimidin-2-yl](2-{[5-(trifluoromethyl)(2-pyridyl)]amino}ethyl) amine]
≤ 1000 nM	O=[N+]([O-])c1ccc(NCCNc2ncc(CN3CCOCC3)c(-c3ccc(Cl)cc3Cl)n2)nc1 [[4-(2,4-dichlorophenyl)-5-(morpholin-4-ylmethyl)pyrimidin-2-yl]{2-[(5-nitro(2-pyridyl))amino]ethyl}amine]
≤ 1000 nM	CCOC(=O)c1cnc(NCCNc2ccc([N+](=O)[O-])cn2)nc1-c1ccc(C#N)cc1 [ethyl 4-(4-cyanophenyl)-2-({2-[(5-nitro(2-pyridyl))amino]ethyl}amino)pyrimidine-5-carboxylate]
≤ 10000 nM	N#Cc1cnc(NCCNc2ccc([N+](=O)[O-])cn2)nc1-c1ccc(Cl)cc1Cl [4-(2,4-dichlorophenyl)-2-({2-[(5-nitro(2-pyridyl))amino]-ethyl}amino)pyrimidine-5-carbonitrile]
≤ 1000 nM	NC(=O)c1ccc(-c2ccnc(NCCNc3ncccn3)n2)cc1 [4-(2-{[2-(pyrimidin-2-ylamino)ethyl]amino}pyrimidin-4-yl)benzamide]
≤ 1000 nM	COc1cccc(NCCNc2nccc(-c3ccc(C(N)=O)cc3)n2)n1 [4-[2-({2-[(6-methoxy-2-pyridyl)amino]ethyl}amino)pyrimidin-4-yl]benzamide]
≤ 1000 nM	N#Cc1ccc(-c2nc(NCCNc3ccc([N+](=O)[O-])cn3)ncc2C(=O)OCC(O)CN2CCOCC2)cc1 (stereo not shown) [2-hydroxy-3-morpholin-4-yl-propyl 4-(4-cyanophenyl)-2-({2-[(5-nitro(2-pyridyl))amino]ethyl}amino)pyrimidine-5-carboxylate]
≤ 1000 nM	Nc1nc(NCCNc2ncc(CN3CCOCC3)c(-c3ccc(Cl)cc3Cl)n2)ccc1[N+](=O)[O-] [{2-[(6-amino-5-nitro(2-pyridyl))amino]ethyl}[4-(2,4-dichlorophenyl)-5-(morpholin-4-ylmethyl)pyrimidin-2-yl]amine]
≤ 1000 nM	CCOC(=O)c1cnc(NCCNc2ccc([N+](=O)[O-])cn2)nc1-c1ccc(F)c(F)c1 [ethyl 4-(3,4-difluorophenyl)-2-({2-[(5-nitro(2-pyridyl))amino]ethyl}amino)pyrimidine-5-carboxylate]
≤ 1000 nM	CCOC(=O)c1cnc(NCCNc2ccc([N+](=O)[O-])cn2)nc1-c1ccc(C(C)(C)C)cc1 [ethyl 4-[4-(tert-butyl)-phenyl]-2-({2-[(5-nitro(2-pyridyl))amino]ethyl}amino)pyrimidine-5-carboxylate]
≤ 1000 nM	O=[N+]([O-])c1ccc(NCCNc2ncc([N+](=O)[O-])c(-c3ccccc3)n2)nc1 [{2-[(5-nitro(2-pyridyl))amino]ethyl}(5-nitro-4-phenylpyrimidin-2-yl)amine]
≤ 1000 nM	N#Cc1ccc(-c2nc(NCCNc3ccc([N+](=O)[O-])cn3)ncc2C(=O)NCc2ccccc2)cc1 [[4-(4-cyanophenyl)-2-({2-[(5-nitro(2-pyridyl))amino]ethyl}amino)pyrimidin-5-yl]-N-benzylcarboxamide]
≤ 10000 nM	O=C(NCc1cccnc1)c1ccc(-c2ccnc(NCCNc3ccc([N+](=O)[O-])cn3)n2)cc1 [{4-[2-({2-[(5-nitro(2-pyridyl))amino]ethyl}amino)pyrimidin-4-yl]phenyl}-N-(3-pyridylmethyl)carboxamide]
≤ 10000 nM	CCOC(=O)c1cnc(NCCNc2ccc3ccccc3n2)nc1-c1ccc(C#N)cc1 [ethyl 4-(4-cyanophenyl)-2-{[2-(2-quinolylamino)ethyl]amino}pyrimidine-5-carboxylate]
≤ 10000 nM	CCOC(=O)c1cnc(NCCNc2ccc([N+](=O)[O-])cn2)nc1-c1ccc(Cl)c(Cl)c1 [ethyl 4-(3,4-dichlorophenyl)-2-({2-[(5-nitro(2-pyridyl))amino]ethyl}amino)pyrimidine-5-carboxylate]
≤ 1000 nM	C/C(=N\c1cnc(NCCNc2ccc([N+](=O)[O-])c(N)n2)nc1-c1ccc(Cl)cc1Cl)N1CCOCC1 [[5-((1E)-1-aza-2-morpholin-4-ylprop-1-enyl)-4-(2,4-dichlorophenyl)pyrimidin-2-yl]{2-[(6-amino-5-nitro(2-pyridyl))amino]ethyl}amine]
≤ 1000 nM	Cc1c[nH]c(-c2cnc(NCCNc3ccc([N+](=O)[O-])c(N)n3)nc2-c2ccc(F)cc2Cl)n1 [{2-[(6-amino-5-nitro(2-pyridyl))amino]ethyl}[4-(2-chloro-4-fluorophenyl)-5-(4-methylimidazol-2-yl)pyrimidin-2-yl]amine]
≤ 1000 nM	N#Cc1cnc(NCCNc2nccc(-c3ccc(C(=O)NCc4cccc(Br)c4)cc3)n2)nc1N [{4-[2-({2-[(4-amino-5-cyanopyrimidin-2-yl)amino]ethyl}amino)pyrimidin-4-yl]phenyl}-N-[(3-bromophenyl)methyl]carboxamide]
≤ 10000 nM	COc1cccc(OCCCNc2nccc(-c3ccc(C(N)=O)cc3)n2)c1 [4-(2-{[3-(3-methoxyphenoxy)propyl]-amino}pyrimidin-4-yl)benzamide]
≤ 10000 nM	CCOC(=O)c1cnc(NCCc2ccccn2)nc1-c1ccc(C#N)cc1 [ethyl 4-(4-cyanophenyl)-2-[(2-(2-pyridyl)ethyl)amino]-pyrimidine-5-carboxylate]
≤ 10000 nM	NC(=O)c1ccc(-c2ccnc(NCCNc3nc4ccccc4s3)n2)cc1
≤ 10000 nM	NC(=O)c1ccc(-c2ccnc(NCc3ccc(-c4cccc(N)c4)cc3)n2)cc1 [4-[2-({[4-(3-aminophenyl)phenyl]methyl}amino)pyrimidin-4-yl]benzamide]
≤ 1000 nM	CNCC(=O)Nc1cnc(NCCNc2ccc([N+](=O)[O-])c(N)n2)nc1-c1ccc(Cl)cc1Cl [N-[2-({2-[(6-amino-5-nitro(2-pyridyl))amino]ethyl}amino)-4-(2,4-dichlorophenyl)pyrimidin-5-yl]-2-(methylamino)acetamide]
